The text below walks through data of US20030229113A1, “Keratinocyte growth inhibitors and hydroxamic acid derivatives” (priority 2003, published 2003).

Test [1] relates to re-epithelialization of skin wound. Kind of test: Re-epithelialization in mouse skin wound model. In kind it is in vivo, male BALB/c mice. As to conditions: 50% inhibition of re-epithelialization; applied to 6-mm wound once a day. As to the method:
Wound healing model was prepared according to the method described by Tsuboi, et al. [J. Dermatol., 19, 673-675 (1992)]. Briefly, after backs of male BALB/c mice were shaved, two full-thickness round wounds were prepared in parallel to anterior-posterior axis on the back of each mouse using a punch biopsy instrument (6-mm diameter). After the operation, a test compound dissolved or suspended in 0.1M phosphate-buffered saline containing 1.5% sodium carboxymethylcellulose (vehicle) was applied to each wound in a volume of 50 μl/wound. The wounds were left open. From the following day, the compound was applied to each wound once a day for 7 days (the treated group). In the control group, vehicle solution only was applied in the same manner. One day after the last application, mice were sacrificed and skin tissues around the anterior wound were excised. The tissues were fixed with 10% formalin and embedded in paraffin according to the conventional method. The sections were made perpendicularly to the anterior-posterior axis. Keratinocytes in the specimen were stained with an anti-keratin antibody. Measurements of wound size and epidermal migration were performed by using an image-analyzing software. Re-epithelialization was calculated as follows; [formula]
The amount of the test compound required for achieving 50% inhibition against the mean re-epithelialization of the control group (ED50) was calculated.

Test [2] concerns solubilizing enzyme of HB-EGF. Description: Inhibition of TPA-stimulated release of HB-EGF from HT-1080 transfectant expressing HB-EGF/alkaline phosphatase fusion protein. Conditions: HT-1080 HB-EGF-AP transfectant, TPA 60 nM for 60 min, AP activity in conditioned medium (OD405). Type of test: cell-based, human. As to the method:
Human fibrosarcoma HT-1080 stable transfectant expressing fusion protein of HB-EGF and human placental alkaline phosphatase (AP) were used for following experiments.
The cultured transfectant was treated with Trypsin-EDTA solution, and suspended in Minimum Essential Medium (without phenol red; supplemented with 10% heat-inactivated fetal calf serum; MEM) at the concentration of 1×10^5 cells/ml. Each 0.2 ml of the cell suspension was dispensed into individual wells of 96 well microplate, and incubated overnight in the CO2 incubator (37° C.). After the incubation, the conditioned medium was removed, and the wells were washed once with 0.2 ml of phosphate buffered saline. The cells were treated with 0.1 ml of compound solution [compound solutions in dimethylsulfoxide (DMSO) were diluted 100 times with MEM] for 30 min at 37° C. Then the compound solutions were removed, and cells were treated with 0.2 ml of TPA solution (120 μM) of stock solution was diluted to 60 nM with MEM) containing same concentration of the compound for 60 min at 37° C. The cells treated same procedure without compound were used as control.
After these treatments, each 0.1 ml of conditioned medium was transferred to individual wells of new 96 well microplate and incubated at 65° C. for 10 min to inactivate endogenous alkaline phosphatase. One hundred microliter of substrate solution (1 mg/ml of p-nitrophenyl phosphate in 0.01% magnesium chloride/1 M diethanolamine) for AP was added to each well and incubated for 120 min at room temperature in the dark. The OD405 of each well was measured with microplate reader. The IC50 values of the compounds were calculated from the concentration-inhibition curves.

Test [3] concerns epidermal hyperplasia induced by TPA. Kind of test: TPA-induced epidermal hyperplasia on dorsal skin of mice. As to conditions: ED50; topical in acetone at 1 minute, 24 and 48 hours after TPA; epidermal thickness 72 hours after TPA. Type of test: in vivo, male BALB/c mice. As to the method: After backs of male BALB/c mice were shaved, 20 micro 1 of TPA-acetone solution (50 μM) was applied to the dorsal skin surface in an area of ca. 1 cm^2. A volume of 20 micro 1 of test compound-acetone solution was applied to the same area a minute, 24 hours and 48 hours after TPA application (the treated group). In the non-treated group, acetone was applied instead of the test compound. In the control group, acetone was applied instead of TPA and the test compound. The mice were sacrificed, and the skin tissues treated with TPA or the test compound were excised 72 hours after TPA application. Then the tissues were fixed with 10% formalin and embedded in paraffin according to the conventional method. The vertical sections including the center of the TPA- or the test compound-treated area were prepared and they were stained by hematoxylin-eosin. The epidermal thickness was measured using an ocular microscope. The amount of the test compound required for achieving 50% inhibition against the mean epidermal thickness of the non-treated group (ED50) was calculated, wherein the mean epidermal thickness of the non-treated group was 100% and that of the control group was 0%.

Where two headings read alike, the source gives them in different places.

On to `COCCCOc1ccc(S(=O)(=O)N2Cc3nccnc3CC2C(=O)NO)cc1` (single isomer, unassigned; (+)) [the compound(14), (+)-N-Hydroxy-6-[4-(3-methoxypropoxy)benzenesulfonyl]-5,6,7,8-tetrahydropyrido[3,4-b]pyrazine-7-carboxamide], for which, in test [1], the ED50 was 9.8 10^−6 g/0.3 cm^2. Further, in test [2] (read-out: IC50), the IC50 amounted to 53 nM. For the same compound, the “Amount of test compound required for 50% suppression of epidermal hyperplasia” value in test [3] is 300 10^−6 g/cm^2.
Taken in the same sequence, the figures for `COc1ccc(S(=O)(=O)N2Cc3nccnc3CC2C(=O)NO)cc1` (single isomer, unassigned; (+)) [the compound(13), (+)-N-Hydroxy-6-(4-methoxybenzenesulfonyl)-5,6,7,8-tetrahydropyrido[3,4-b]pyrazine-7-carboxamide] were 4.5 10^−6 g/0.3 cm^2, 350 nM and 350 10^−6 g/cm^2.
The like results for `O=C(NO)C1Cc2nccnc2CN1S(=O)(=O)c1ccc(Oc2ccccc2)cc1` (single isomer, unassigned; (+)) [the compound(20), (+)-N-Hydroxy-6-(4-phenoxybenzenesulfonyl)-5,6,7,8-tetrahydropyrido[3,4-b]pyrazine-7-carboxamide] were, in that order, 9.7 10^−6 g/0.3 cm^2, 410 nM and 27 10^−6 g/cm^2.
Take `CCCOc1ccc(S(=O)(=O)N2Cc3nccnc3CC2C(=O)NO)cc1` (single isomer, unassigned; (+)) [the compound(16), (+)-N-Hydroxy-6-(4-propoxybenzenesulfonyl)-5,6,7,8-tetrahydropyrido[3,4-b]pyrazine-7-carboxamide]: the ED50 in test [1] was 11.6 10^−6 g/0.3 cm^2. Further, the IC50 in test [2] (read-out: IC50) amounted to 1000 nM.
Consider `CCOc1ccc(S(=O)(=O)N2Cc3nccnc3CC2C(=O)NO)cc1` (single isomer, unassigned; (+)) [the compound(15), (+)-N-Hydroxy-6-(4-ethoxybenzenesulfonyl)-5,6,7,8-tetrahydropyrido[3,4-b]pyrazine-7-carboxamide], for which, in test [1], the ED50 is 5.2 10^−6 g/0.3 cm^2. Also, the IC50 in test [2] (read-out: IC50) was found to be 310 nM. Besides, in test [3], the “Amount of test compound required for 50% suppression of epidermal hyperplasia” value was 370 10^−6 g/cm^2.
Taken in the same sequence, the figures for `COCCOc1ccc(S(=O)(=O)N2Cc3nccnc3CC2C(=O)NO)cc1` (single isomer, unassigned; (+)) [the compound(19), (+)-N-Hydroxy-6-[4-(2-methoxyethoxy)benzenesulfonyl]-5,6,7,8-tetrahydropyrido[3,4-b]pyrazine-7-carboxamide] were 16.6 10^−6 g/0.3 cm^2, 360 nM and 200 10^−6 g/cm^2.
As for `CSCCCOc1ccc(S(=O)(=O)N2Cc3nccnc3CC2C(=O)NO)cc1` (single isomer, unassigned; (+)) [the compound(21), (+)-N-Hydroxy-6-[4-(3-methylthiopropoxy)benzenesulfonyl]-5,6,7,8-tetrahydropyrido[3,4-b]pyrazine-7-carboxamide], the ED50 in test [1] is given as 11.0 10^−6 g/0.3 cm^2. The compound also returned an IC50 in test [2] of 100 nM. The “Amount of test compound required for 50% suppression of epidermal hyperplasia” value in test [3] is reported as 230 10^−6 g/cm^2.

In general, IC50 refers to the concentration needed to halve the response being measured.
